The record followed here is US9321768B2, “Indoles as respiratory syncytial virus antiviral agents” (JANSSEN SCIENCES IRELAND UC, priority 2010, dated 2016).

A word on the EC50: it is the concentration that produces a half-maximal response. What is called CC50 is the concentration giving 50% cytotoxicity.

Read-outs that look alike come from different tables or passages of the source.

Series [1] relates to rgRSV224 virus. Briefly: microbe, parasite or virus in culture. The series is classed as cell-based, respiratory syncytial virus (RSV). The note with it: for SI CC50/EC50: ratio of HeLa CC50 to rgRSV224 EC50; for EC50: read-out: WT activity EC50. The procedure:
(§1) Black 96-well clear-bottom microtiter plates (Corning, Amsterdam, The Netherlands) were filled in duplicate using a customized robot system with serial 4-fold dilutions of compound in a final volume of 50 μl culture medium [RPMI medium without phenol red, 10% FBS, 0.04% gentamycin (50 mg/ml) and 0.5% DMSO]. Then, 100 μl of a HeLa cell suspension (5×10^4 cells/ml) in culture medium was added to each well followed by the addition of 50 μl rgRSV224 (MOI=0.02) virus in culture medium using a multidrop dispenser (Thermo Scientific, Erembodegem, Belgium). rgRSV224 virus is an engineered virus that includes an additional GFP gene (Hallak et al, 2000) and was in-licensed from the NIH (Bethesda, Md., USA). Medium, virus- and mockinfected controls were included in each test. Cells were incubated at 37° C. in a 5% CO2 atmosphere. Three days post-virus exposure, viral replication was quantified by measuring GFP expression in the cells by a MSM laser microscope (Tibotec, Beerse, Belgium). The EC50 was defined as the 50% inhibitory concentration for GFP expression. In parallel, compounds were incubated for three days in a set of white 96-well microtitier plates (Corning) and the cytotoxicity of compounds in HeLa cells was determined by measuring the ATP content of the cells using the ATPlite kit (PerkinElmer, Zaventem, Belgium) according to the manufacturer's instructions. The CC50 was defined as the 50% concentration for cytotoxicity.

The nature of series [2]: Cytotoxicity in HeLa cells, ATP content (ATPlite kit). It counts as cell-based. The note with it: human. How it is done:
as §1
(ATP-based viability assays read luminescence as a measure of living cells.)

Where [3] appears, read: rgRSV224 (MOI=0.02) in HeLa cells, GFP expression three days post-virus exposure.
The mark [4] stands for this setting: human respiratory syncytial virus, HeLa, 72 h.
[5] abbreviates: HeLa cells, three days incubation, ATP content, read-out: Toxicity CC50.

With `CS(=O)(=O)CCCn1c(Cn2c(=O)n(C3CC3)c3ccccc32)cc2cc(Cl)ccc21` [Compound P40], the “SI CC50/EC50” value in series [1] is above 29923. In addition, the EC50 in series [1] (setting [3]) came to 2.94 nM.
For `CS(=O)(=O)CCCn1c(Cn2c(=O)n(C3CC3)c3ccncc32)cc2cc(Cl)ccc21` [Compound 1, 3-((5-Chloro-1-(3-(methylsulfonyl)propyl)-1H-indol-2-yl)methyl)-1-cyclopropyl-1H-imidazo[4,5-c]pyridin-2(3H)-one], the EC50 in series [1] (setting [4]) is 0.286 nM. For the same molecule, in series [2], the CC50 at 3 days is above 9840 nM.
In the case of `O=c1n(Cc2cc3cc(F)ccc3n2CCCCO)c2cnccc2n1C1CC1` [Compound 9, 1-Cyclopropyl-3-((5-fluoro-1-(4-hydroxybutyl)-1H-indol-2-yl)methyl)-1H-imidazo[4,5-c]pyridin-2(3H)-one], the EC50 in series [1] (setting [4]) came to 29.4 nM. For the same molecule, the CC50 at 3 days in series [2] amounted to 50300 nM.
On to `O=c1n(Cc2cc3cc(Cl)ccc3n2CCCN2CCOCC2)c2cnccc2n1C1CC1` [Compound P58], for which the “SI CC50/EC50” value in series [1] was 7416. The EC50 in series [1] (setting [3]) was 5.8 nM.
Consider `CS(=O)(=O)CCCn1c(Cn2c(=O)n(C3CC3)c3ccc(F)cc32)cc2cc(Br)ccc21` [Compound 6, 3-((5-Bromo-1-(3-(methylsulfonyl)propyl)-1H-indol-2-yl)methyl)-1-cyclopropyl-5-fluoro-1H-benzo[d]imidazol-2(3H)-one], for which the EC50 in series [1] (setting [4]) worked out at 1.6 nM. This molecule also had a CC50 at 3 days in series [2] above 9840 nM.
Consider `O=C(NC1CC1)c1c(Cn2c(=O)n(C3CC3)c3ccncc32)n(CCCC(F)(F)F)c2ccc(Cl)cc12` [Compound P68], for which the “SI CC50/EC50” value in series [1] is 249. In addition, the EC50 in series [1] (setting [3]) was 12.6 nM.
Take `O=c1n(Cc2cc3cc(F)ccc3n2CCCCF)c2cnccc2n1C1CC1` [Compound P29]: in series [1], the “SI CC50/EC50” value is listed as 2149. Also, the EC50 in series [1] (setting [3]) was found to be 13.8 nM.
Take `CC(C)CCn1c(Cn2c(=O)n(C3CC3)c3ccncc32)c(C(N)=O)c2ccccc21` [Compound 14, 2-((1-cyclopropyl-2-oxo-1H-imidazo[4,5-c]pyridin-3(2H)-yl)methyl)-1-isopentyl-1H-indole-3-carboxamide]: the EC50 in series [1] (setting [4]) stood at 4.51 nM. In addition, the CC50 at 3 days in series [2] (setting [5]) is above 24600 nM.
Consider `CC(C)(O)CCCn1c(Cn2c(=O)n(C3COC3)c3ccncc32)cc2cc(Cl)ccc21` [Compound P73], for which the “SI CC50/EC50” value in series [1] was found to be 15070. Also, the EC50 in series [1] (setting [3]) is 3.16 nM.
The corresponding values for `CS(=O)(=O)CCCn1c(Cn2c(=O)n(C3COC3)c3ccncc32)cc2ccccc21` [Compound P24] are above 3065 and 32.6 nM.
The corresponding values for `CC(C)(O)CCCn1c(Cn2c(=O)n(CC(F)(F)F)c3ccncc32)cc2cc(Cl)ccc21` [Compound P74] are 15708 and 3.16 nM.
In the same order, the values of `CS(=O)(=O)CCCn1c(Cn2c(=O)n(C3COC3)c3ccncc32)cc2cc(F)ccc21` [Compound P22] are above 4200 and 23.8 nM.
For the molecule `CS(=O)(=O)CCCn1c(Cn2c(=O)n(C3CC3)c3ccccc32)cc2ccccc21` [Compound P28], in series [1], the “SI CC50/EC50” value is on record as 184. Further, the EC50 in series [1] (setting [3]) worked out at 348 nM.
For the molecule `NC(=O)c1c(Cn2c(=O)n(C3CC3)c3ccncc32)n(CCCCF)c2ccc(Cl)cc12` [Compound P54, 5-chloro-2-((1-cyclopropyl-2-oxo-1H-imidazo[4,5-c]pyridin-3(2H)-yl)methyl)-1-(4-fluorobutyl)-1H-indole-3-carboxamide], the EC50 in series [1] (setting [4]) worked out at 0.0528 nM. Moreover, in series [1], the “SI CC50/EC50” value is on record as above 603587.
For `CC(C)(O)CCCn1c(Cn2c(=O)n(C3CC3)c3ccncc32)cc2cc(Cl)ccc21` [Compound P72], the “SI CC50/EC50” value in series [1] is 24273. Besides, in series [1] (setting [3]), the EC50 was determined as 1.58 nM.
In the same order, the values of `O=c1n(Cc2cc3cc(Cl)ccc3n2CCCCF)c2cnccc2n1C1COC1` [Compound P66] are 21581 and 1.25 nM.
The corresponding values for `N#CCCCn1c(Cn2c(=O)n(CC(F)(F)F)c3ccncc32)cc2cc(Cl)ccc21` [Compound P62] are 81459 and 0.539 nM.
The corresponding values for `CS(=O)(=O)CCCn1c(Cn2c(=O)n(C3CC3)c3ccncc32)cc2cc(F)ccc21` [Compound P20] are 15206 and 4.07 nM.
Take `CNC(=O)c1c(Cn2c(=O)n(C3CC3)c3ccncc32)n(CCCC(F)(F)F)c2ccc(Cl)cc12` [Compound P64]: the “SI CC50/EC50” value in series [1] is listed as above 3896. Besides, the EC50 in series [1] (setting [3]) was 6.42 nM.
`CS(=O)(=O)CCCn1c(Cn2c(=O)n(C3CC3)c3ccncc32)cc2cc(C(F)(F)F)ccc21` [Compound P23]: the “SI CC50/EC50” value in series [1] is listed as 6557. Moreover, in series [1] (setting [3]), the EC50 was determined as 7.37 nM.
For `O=c1n(Cc2c(I)c3ccc(Cl)cc3n2CCCCO)c2cnccc2n1C1CC1` [Compound 15, 3-((6-Chloro-1-(4-hydroxybutyl)-3-iodo-1H-indol-2-yl)methyl)-1-cyclopropyl-1H-imidazo[4,5-c]pyridin-2(3H)-one], in series [1] (setting [4]), the EC50 turned out to be 76.7 nM. The molecule also returned a CC50 at 3 days in series [2] above 9840 nM.
On to `N#CCCCn1c(Cn2c(=O)n(C3CC3)c3ccccc32)cc2cc(Cl)ccc21` [Compound P35], for which, in series [1], the “SI CC50/EC50” value came out at 5353. Besides, the EC50 in series [1] (setting [3]) was 3.14 nM.
In the same order, the values of `N#CCCCn1c(Cn2c(=O)n(C3CC3)c3ccncc32)cc2cc(Cl)ccc21` [Compound P33] are 190625 and 0.266 nM.
On to `CS(=O)(=O)CCCn1c(Cn2c(=O)n(C3CC3)c3ccccc32)cc2cc(F)ccc21` [Compound P26], for which the “SI CC50/EC50” value in series [1] stood at 2270. Also, the EC50 in series [1] (setting [3]) was 22.6 nM.
For the molecule `CS(=O)(=O)CCCn1c(Cn2c(=O)n(CC(F)(F)F)c3ccc(F)cc32)cc2cc(Cl)ccc21` [Compound P50], the “SI CC50/EC50” value in series [1] is reported as 5176. The EC50 in series [1] (setting [3]) was found to be 4.8 nM.
On to `CS(=O)(=O)CCCn1c(Cn2c(=O)n(C3CC3)c3ccncc32)cc2ccccc21` [Compound P25], for which, in series [1], the “SI CC50/EC50” value is above 10945. Also, in series [1] (setting [3]), the EC50 was 9.14 nM.
Take `N#CCCCCn1c(Cn2c(=O)n(C3CC3)c3ccncc32)cc2cc(Br)ccc21` [Compound 3, 5-((5-bromo-2-(1-cyclopropyl-2-oxo-1H-imidazo[4,5-c]pyridin-3(2H)-yl)methyl)-1H-indol-1-yl)pentanenitrile]: the EC50 in series [1] (setting [4]) amounted to 0.452 nM. Also, the CC50 at 3 days in series [2] is above 9840 nM.
On to `CC(C)CCn1c(Cn2c(=O)n(C3CC3)c3ccncc32)c(C(=O)O)c2ccccc21` [Compound 17, 2-((1-cyclopropyl-2-oxo-1H-imidazo[4,5-c]pyridin-3(2H)-yl)methyl)-1-isopentyl-1H-indole-3-carboxylic acid], for which the EC50 in series [1] (setting [4]) came to 159 nM. The CC50 at 3 days in series [2] (setting [5]) is above 98400 nM.
The corresponding values for `CC(C)CCn1c(Cn2c(=O)n(C3CC3)c3ccncc32)c(C(=O)NS(C)(=O)=O)c2ccccc21` [Compound 19, 2-((1-cyclopropyl-2-oxo-1H-imidazo[4,5-c]pyridin-3 (2H)-yl)methyl)-1-isopentyl-N-(methylsulfonyl)-1H-indole-3-carboxamide] are 3210 nM and above 9840 nM.
Consider `NC(=O)c1c(Cn2c(=O)n(C3CC3)c3ccc(F)cc32)n(CCCCF)c2ccc(Cl)cc12` [Compound P63], for which the “SI CC50/EC50” value in series [1] is given as above 89869. Besides, the EC50 in series [1] (setting [3]) is 1.11 nM.
In the case of `COc1ccc2c(c1)n(Cc1cc3cc(F)ccc3n1CCCS(C)(=O)=O)c(=O)n2C1CC1` [Compound P41], the “SI CC50/EC50” value in series [1] worked out at 886. The EC50 in series [1] (setting [3]) was 63.4 nM.
For `O=c1n(Cc2cc3cc(Cl)ccc3n2CCCC(F)(F)F)c2cnccc2n1C1COC1` [Compound P67], the “SI CC50/EC50” value in series [1] is given as above 85461. Also, the EC50 in series [1] (setting [3]) is 1.25 nM.
In the same order, the values of `CS(=O)(=O)CCCn1c(Cn2c(=O)n(C3CC3)c3ccccc32)cc2cc(Br)ccc21` [Compound P21] are 6322 and 3.88 nM.
In the same order, the values of `O=c1n(Cc2cc3cc(F)ccc3n2CCCCF)c2ccccc2n1C1CC1` [Compound P34] are above 398 and 251 nM.
The corresponding values for `CS(=O)(=O)CCCn1c(Cn2c(=O)n(C3CC3)c3ccc(F)cc32)cc2cc(F)ccc21` [Compound P27] are 664 and 36 nM.
For the molecule `CS(=O)(=O)CCCn1c(Cn2c(=O)n(CC(F)(F)F)c3ccncc32)cc2cc(Cl)ccc21` [Compound P55], the “SI CC50/EC50” value in series [1] is on record as above 258982. The EC50 in series [1] (setting [3]) is below 0.157 nM.
On to `O=c1n(Cc2cc3cc(Br)ccc3n2CCCC(F)(F)F)c2ccccc2n1C1CC1` [Compound P31], for which the “SI CC50/EC50” value in series [1] was determined as 3446. The EC50 in series [1] (setting [3]) came to 12.1 nM.
The corresponding values for `NC(=O)c1c(Cn2c(=O)n(C3CC3)c3ccc(F)cc32)n(CCCC(F)(F)F)c2ccc(Cl)cc12` [Compound P65] are above 45348 and 1.1 nM.
Turning to `O=c1n(Cc2cc3cc(Cl)ccc3n2CCCCF)c2cnccc2n1C1CC1` [Compound P30], in series [1], the “SI CC50/EC50” value was determined as 24457. For the same molecule, in series [1] (setting [3]), the EC50 worked out at 0.733 nM.
In the same order, the values of `O=c1n(Cc2cc3cc(Br)ccc3n2CCCC(F)(F)F)c2cnccc2n1C1CC1` [Compound P32] are 53514 and 0.34 nM.
